Test results as given in patent US10173988B2, “N2-(3,4-dimethylphenyl)-6-((4-(p-tolyl)piperazin-1-yl)methyl)-1,3,5-triazine-2,4-diamine” (GLUCOX BIOTECH AB, priority 2015, dated 2019).

Tests used:
[1] = Caco-2 permeability assay; type: in vitro ADME; settings: human, Caco-2; for Papp A→B at 60 min: apical to basolateral; for Papp A→B at 60 min / Papp B→A at 60 min: pH 7.4, 37° C., test concentration 1 to 10 μM; for Papp B→A at 60 min: basolateral to apical; for efflux ratio at 60 min: Papp (b-a) divided by Papp (a-b)
Protocol: (§1) Caco-2 membrane permeability was performed in accordance with published protocols. [Hubatch] Caco-2 cell monolayers (passage 94-105) were grown on permeable filter support and used for transport study on day 21 after seeding. Prior to the experiment a drug solution of 10 μM was prepared and warmed to 37° C.
(§2) The Caco-2 filters were washed with prewarmed HBSS prior to the experiment, and thereafter experiment was started by applying the donor solution on the apical side or basolateral side, depending on which direction that was monitored. The transport experiments were carried out at pH 7.4 in both the apical and basolateral chambers. The experiments were performed at 37° C. and with a stirring rate of 500 rpm. The receiver compartment was sampled at 15, 30, and 60 min, and at 60 min also a final sample from the donor chamber was taken in order to calculate the mass balance of the compound. Directly after the termination of experiment the filter inserts were washed with prewarmed HBSS and the membrane integrity was checked. This was performed by trans-epithelial electrical resistance (TEER) measurement. The experiment was validated by inclusion of the para-cellular marker 14Cmannitoland monitoring its permeability during the experiments. Mannitol is a para-cellular marker used for cell monolayer integrity measurements.
(§3) Test compounds were thus added to either the apical or basolateral side of the Caco-2 cell layer, to measure permeability in the absorptive (apical to basolateral, Papp (a-b)) or secretive (basolateral to apical Papp (a-b) directions, respectively. The efflux is calculated as Papp (b-a) divided by Papp (a-b). The results are presented in Table 3.

Caco-2 cell monolayers = assay: Caco-2 permeability assay; type: in vitro ADME; settings: mass balance
Protocol: as §1, §2, §3

human Nox1 = human Nox1 (Homo sapiens (Human), UniProt Q9Y5S8); assay: Nox1 whole cell luminescence assay (luminol, PMA-stimulated); type: cell-based; settings: CHO cells stably expressing human Nox1
Protocol: CHO cells modified to stably express human Nox1 were grown in DMEM/F12 gibco 31331 containing 10% FBS and 1% pen/strep at 37° C. in air with 5% CO2. Cells were collected from cultures by Trypsin mediated detachment of adherent cells.
A luminescence assay was used that measures the production of reactive oxygen species in whole cells. Luminol reacts with superoxide and emits light and light is measured with luminometer (Synergy/2 microplate reader, BioTek).
Inhibitors were diluted in a compound plate in DMSO (100%) then transferred to Hanks buffer solution and in assay plate DMSO were 2% in all the wells.
Assay procedure, final well volume 100 μl, 96-well plate: Inhibitors (20 μl) were added, then cell suspension was (100 000 cells/well), incubate 37° C. for 30 min, add PMA (0.9 μM/well) to Luminol reaction mix (Luminol 0.1 mM/well and HRP 3.2 U/well) then this stimulation mix into wells. The plate were then immediately read (steps 5 min each reading) and for 1 h. Data was calculated for the linear part of the curve and IC50 determined.
Compounds (Nox inhibitors) were diluted at 3× working concentration and titrated from 200 μM to 0.003 μM in 11 steps

Nox4 = Nox4 (Homo sapiens (Human), UniProt Q9NPH5); assay: Nox4 whole cell assay (Amplex red, hydrogen peroxide); type: cell-based; settings: HEK (CJ Nox4) cells stably expressing Nox4
Protocol: Cells: HEK (CJ Nox4) stably expressing Nox4 was purchased from Redoxis AB (Lund). The adherent cells were cultivated in RPMI 1640 with L-Glutamine were supplemented with FBS (10%), penicillin (10 U/ml) streptomycin (100 μg/ml) and neomycin (200 μg/ml) at 37° C. in air with 5% CO^2.
Hydrogen peroxide produced by Nox4 was measured (fluorescence emission: 590 and excitation: 544) using Amplex red (Molecular Probes) in Fluorescan Ascent plate reader Type 374. Cells were collected from cultures by Trypsin mediated detachment of adherent cells. Cells were seeded in 96-well plates at a density of 50 000 cells in […] assay volume. […] Nox4 activity was measured up to 100 min with readings every minute. […] Y-axes: turnover of hydrogen peroxide; x-axes: concentration of inhibitor. Inhibitors were diluted in a compound plate in DMSO (100%) then transferred to Hanks buffer solution and in assay plate DMSO were 2% in all the wells.
Compounds (Nox inhibitors) were diluted at 3× working concentration and titrated from 200 μM to 0.003 μM in 11 steps.

Nox2 = Nox2 (Homo sapiens (Human), UniProt P04839); assay: Nox2 whole cell assay in isolated neutrophils (isoluminol, PMA-stimulated); type: cell-based; settings: PMA 30 ng/ml
Excerpt: Cells: Human blood was purchased in buffy coat, prepared the same day for isolation of neutrophils, from Labjoy AB, Lund, Sweden. Blood components were separated by density gradient centrifugation using Ficoll-Paque Plus. Plasma, PBMCs and Ficoll were removed before erythrocytes were removed by dextran sedimentation. Remaining erythrocytes were lyses before neutrophils were washed and counted. Isolated neutrophils were kept on ice resuspended in HBSS without Mg and Ca until assayed.
Buffers: The isoluminol buffer contained Isoluminol (0.175 mg/ml) and HRP fraction II (1.75 U/ml). The buffer was prepared by diluting these ingredients at 4× working concentration in HBSS.
Procedures: Compounds (Nox inhibitors) were diluted at 4× working concentration and titrated from 100 μM to 0.006 μM in 1:4 steps. PMA was diluted in Isoluminol buffer at 4× working concentration for a final concentration of 30 ng/ml. […] 25 μl diluted compound or control/well were added to a white 96-well plate. 25 μl/well of PMA diluted in Isoluminol buffer was added to each well. To non-stimulated control wells only Isoluminol buffer was added. Neutrophils were washed and resuspended at 2×10^6 cells/ml in HBSS with Mg and Ca just before adding 50 μl of the neutrophil cell suspension/well, which was followed by immediate initiation of luminescence measurement. Luminescence was measured using a FluoStar Optima (BMG Labtech). Graphs were performed using Prism 5 for Mac OS X (Prism 5.0 Software, San Diego Calif. USA).

Chain of Nox2 (P04839 2-570): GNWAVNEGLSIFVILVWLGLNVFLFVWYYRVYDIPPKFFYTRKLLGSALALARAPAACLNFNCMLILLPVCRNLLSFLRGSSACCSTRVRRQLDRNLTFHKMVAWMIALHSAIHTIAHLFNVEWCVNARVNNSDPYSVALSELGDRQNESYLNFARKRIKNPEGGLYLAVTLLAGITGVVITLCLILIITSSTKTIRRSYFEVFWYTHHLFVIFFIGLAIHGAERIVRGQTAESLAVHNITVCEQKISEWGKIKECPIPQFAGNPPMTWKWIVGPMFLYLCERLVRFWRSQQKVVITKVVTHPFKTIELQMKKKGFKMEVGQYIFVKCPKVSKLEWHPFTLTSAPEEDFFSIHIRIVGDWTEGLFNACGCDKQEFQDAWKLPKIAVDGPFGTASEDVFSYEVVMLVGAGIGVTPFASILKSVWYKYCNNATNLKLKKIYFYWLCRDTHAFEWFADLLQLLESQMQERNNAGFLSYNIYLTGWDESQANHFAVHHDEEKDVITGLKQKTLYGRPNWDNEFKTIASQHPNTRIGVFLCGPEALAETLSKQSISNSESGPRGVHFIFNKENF
Chain of Nox2 (P13498 2-195 partner): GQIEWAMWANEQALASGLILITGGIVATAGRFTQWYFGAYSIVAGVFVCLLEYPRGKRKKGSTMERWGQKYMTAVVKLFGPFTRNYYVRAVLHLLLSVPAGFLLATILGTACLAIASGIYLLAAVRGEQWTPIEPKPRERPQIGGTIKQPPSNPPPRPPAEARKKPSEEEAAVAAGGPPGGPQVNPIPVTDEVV
Chain of human Nox1 (Q9Y5S8 whole entry): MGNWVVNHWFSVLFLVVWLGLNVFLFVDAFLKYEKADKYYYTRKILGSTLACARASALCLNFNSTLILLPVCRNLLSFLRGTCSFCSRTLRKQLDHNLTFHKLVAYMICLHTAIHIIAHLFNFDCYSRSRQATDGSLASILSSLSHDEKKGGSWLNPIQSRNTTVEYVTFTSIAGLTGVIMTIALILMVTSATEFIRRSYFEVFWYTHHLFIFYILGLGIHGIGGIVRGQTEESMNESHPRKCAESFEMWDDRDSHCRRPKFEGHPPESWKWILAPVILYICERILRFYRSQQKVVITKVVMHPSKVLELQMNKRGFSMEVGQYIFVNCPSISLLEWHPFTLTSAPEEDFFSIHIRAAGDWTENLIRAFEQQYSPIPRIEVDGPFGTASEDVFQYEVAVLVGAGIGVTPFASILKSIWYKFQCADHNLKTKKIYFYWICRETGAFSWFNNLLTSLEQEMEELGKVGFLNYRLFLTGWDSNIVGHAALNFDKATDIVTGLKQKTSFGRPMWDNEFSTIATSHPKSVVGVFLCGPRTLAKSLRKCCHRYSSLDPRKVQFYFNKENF
Chain of human Nox1 (P13498 2-195 partner): as the sequence (P13498 2-195 partner) above
Chain of Nox4 (Q9NPH5 whole entry, species assumed): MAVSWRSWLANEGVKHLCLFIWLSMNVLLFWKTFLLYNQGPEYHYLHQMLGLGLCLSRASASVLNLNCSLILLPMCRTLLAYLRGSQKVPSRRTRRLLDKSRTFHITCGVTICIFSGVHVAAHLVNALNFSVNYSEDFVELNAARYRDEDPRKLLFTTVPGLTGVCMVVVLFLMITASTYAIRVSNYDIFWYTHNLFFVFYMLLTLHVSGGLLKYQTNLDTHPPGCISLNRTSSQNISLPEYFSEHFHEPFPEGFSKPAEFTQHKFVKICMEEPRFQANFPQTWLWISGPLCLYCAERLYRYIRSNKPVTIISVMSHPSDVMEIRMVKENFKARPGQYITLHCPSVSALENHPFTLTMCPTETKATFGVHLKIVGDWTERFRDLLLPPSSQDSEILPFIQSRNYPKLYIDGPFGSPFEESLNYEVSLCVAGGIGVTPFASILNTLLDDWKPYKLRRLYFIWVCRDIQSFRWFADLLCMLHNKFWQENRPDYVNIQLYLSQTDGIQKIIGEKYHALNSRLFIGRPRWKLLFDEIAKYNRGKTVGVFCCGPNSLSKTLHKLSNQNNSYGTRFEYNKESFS
Chain of Nox4 (P13498 2-195 partner, species assumed): as the sequence (P13498 2-195 partner) above

SMILES	Papp A→B at 60 min [1]	Papp B→A at 60 min [1]	MR (Caco-2 cell monolayers; a-b direction)	MR (Caco-2 cell monolayers; b-a direction)	IC50 (human Nox1)	efflux ratio at 60 min [1]	IC50 (Nox4)	IC50 (Nox2)
Cc1ccc(N2CCN(Cc3nc(N)nc(Nc4ccc(C)c(C)c4)n3)CC2)cc1 [inventive, N^2-(3,4-dimethylphenyl)-6-((4-(p-tolyl)piperazin-1-yl)methyl)-1,3,5-triazine-2,4-diamine]	120 ± 16 nm/s	430 ± 58 nm/s	13%	14%	66 µM	–	–	–
COc1cccc(N2CCN(Cc3nc(N)nc(Nc4ccc(C)c(Cl)c4)n3)CC2)c1 [B, N^2-(3-chloro-4-methylphenyl)-6-((4-(3-methoxyphenyl)piperazin-1-yl)methyl)-1,3,5-triazine-2,4-diamine]	8 ± 2 nm/s	430 ± 50 nm/s	41%	41%	22 µM	54	0.84 µM	17 µM
COc1cccc(N2CCN(Cc3nc(N)nc(Nc4ccc(C)c(C)c4)n3)CC2)c1 [A, N^2-(3,4-dimethylphenyl)-6-((4-(3-methoxyphenyl)piperazin-1-yl)methyl)-1,3,5-triazine-2,4-diamine]	350 ± 40 nm/s	340 ± 40 nm/s	17%	12%	66 µM	1	1.68 µM	1.68 µM
Cc1cccc(N2CCN(Cc3nc(N)nc(Nc4ccc(C)c(C)c4)n3)CC2)c1 [C, N^2-(3,4-dimethylphenyl)-6-((4-(m-tolyl)piperazin-1-yl)methyl)-1,3,5-triazine-2,4-diamine]	24 ± 1 nm/s	890 ± 270 nm/s	37%	67%	162 µM	37	1.68 µM	59 µM
Cc1ccc(Nc2nc(N)nc(CN3CCN(c4ccc(Cl)cc4)CC3)n2)cc1C [D, 6-((4-(4-chlorophenyl)piperazin-1-yl)methyl)-N^2-(3,4-dimethylphenyl)-1,3,5-triazine-2,4-diamine]	19 ± 2 nm/s	330 ± 110 nm/s	40%	16%	200 µM	17	1.68 µM	15 µM
